Assay results as given in patent US11952385B1, “12-bromo-2,16-dioxa-9,9,18,18-tetramethylpentacyclo[7.7.5.0 1, 21.0 3,8.0 10,15]henicosa3(8),10,12,14-tetraene-7,20-dione as an antimicrobial compound” (KING FAISAL UNIVERSITY, priority 2023, dated 2024).

How the values were obtained:
Format in all cases: cell-based
Conditions in all cases: after 10, 20, 40 and 60 minutes at all dilutions 1:100, 1:200, 1:400, and 1:800
[1] = system: Candida albicans; assay: Antimicrobial (antifungal) activity by agar dilution, Candida albicans
Method: (§1) The antibacterial properties of the synthesized compound (12-bromo-2,16-dioxa-9,9,18,18-tetramethylpentacyclo[7.7.5.0^1,21.0^3,8.0^10,15]henicosa3(8),10,12,14-tetraene-7,20-dione) were studied by the method of agar dilution. Test solutions of each compound was prepared in concentration of 1% using dimethylformamide as a solvent. Then they were diluted in physiological solution to obtain the final experimental dilutions of 1:100, 1:200, 1:400, and 1:800. The effect of these substances were compared with furacillin in a controllable study. The testing microbes used were gram positive bacteria Staphylococcus aureus, gram negative bacteria Pseudomonas aeruginosa, Escherichia coli, and Candida albicans fungus. The experiments used for this survey were meat-pentonlu agar (EPA) for cultivation of bacteria and Saburo environment for fungi. Each experiment used 1 mL of test solution on each plate for 500 minutes. Two drops of emulsified with microbes feel were added. All experimental samples were taken from the agar after 10, 20, 40, 60 minutes in the environment on the basis of Patrk planted. Bacteria were cultivated at a temperature of 37° C. for 1 day and the mushroom was kept in a thermostat for 2 hours at a temperature of 28° C. Then results were checked. […]

[2] = system: Staphylococcus aureus; assay: Antimicrobial activity by agar dilution, St. Aereus
Method: as §1

[3] = system: Pseudomonas aeruginosa; assay: Antimicrobial activity by agar dilution, Ps. aeruginosa
Method: as §1

[4] = system: Escherichia coli; assay: Antimicrobial activity by agar dilution, E. Coli
Method: as §1

Measured: inhibition activity compared with the inhibition activity of Furacilin

CC1(C)CC(=O)C2=C(C1)OC13CC(C)(C)CC(=O)C1C2c1cc(Br)ccc1O3 (stereo not shown) [12-bromo-2,16-dioxa-9,9,18,18-tetramethylpentacyclo[7.7.5.0^1,21.0^3,8.0^10,15]henicosa3(8),10,12,14-tetraene-7,20-dione]
higher inhibition activity: all assays above
